Data as given in patent US10731221B2, “Diagnosing IDH1 related subgroups and treatment of cancer” (Dignity Health, priority 2009, dated 2020).

Legend:
[1] = tested on: GBM, AKT SL (secondary-like) subtype; test: Kaplan Meier survival of TCGA GBM patients receiving or not receiving BCNU and/or CCNU, by AKT subgroup; format: in vivo, human; conditions: for survival advantage: Secondary-Like patients, CCNU/BCNU; for median survival: TCGA SL patients treated with BCNU or CCNU (vs. other treatments), p=0.03 after correcting for age, log rank; for sensitivity of patients in the SL subgroup: TCGA SL subgroup
Excerpt: FIG. 5 depicts, in accordance with various embodiments of the invention, evidence that SL subtype (AKT subgroup 5) patients are sensitive to alkylating agents BCNU and CCNU. Kaplan Meier survival curves for TCGA patients receiving (solid line) or not receiving (dashed line) alkylating agent (BCNU and/or CCNU) by subgroup. p=0.03 after correcting for age (SL subtype; log rank). n=6 and 16 for SL patients receiving or not receiving BCNU/CCNU, respectively.
The discovery dataset (GBM195) consisted of 181 GBM (WHO grade IV astrocytoma; (159 primary and 22 recurrent) from 3 datasets, [4], [21] and 14 non-neoplastic samples from 2 sources: (1) six samples from patients undergoing temporal lobe epilepsy surgery and (2) eight samples from autopsy specimens of cerebral cortex from donors with no history of neurological disorders obtained from the National Neurological Research Brain Bank (Los Angeles, Calif.). Two datasets are in GEO (GSE4271, GSE4412) and the third has been submitted. Table 1 lists GEO ID's and clinical information for GBM195 tumors. Tissue collection and processing, pathological review, and microarray analysis for the discovery dataset (GBM195) has been described elsewhere ([3] Nigro et al. 2005, [4] Phillips et a. 2006, and [21] Freije et al. 2004, which are incorporated herein by reference in their entirety as though fully set forth.) The validation dataset consisted of 583 samples; 573 GBM (16 recurrent and 3 secondary) and 10 non-neoplastic samples from The Cancer Genome Atlas (TCGA). Samples were collected and processed as described ([5] Atlas TCG 2008, which is incorporated herein by reference in its entirety as though fully set forth.). IRB or Committee on Human Research approval was obtained for samples used in the discovery and validation datasets as described, [4], [10], [21].
Differences between one subgroup and the rest were assessed using the F test for […] and the likelihood ratio test for categorical variables. The Bonferroni method was applied to correct for multiple hypotheses. The inventors applied the Tukey HSD test to find pairwise differences between groups and correct for multiple comparisons. Survival differences between subgroups were assessed using the Chi-squared test. Age was added to build a multivariate Cox model. For survival comparisons of BCNU/CCNU treatment between subgroups there were not enough observations to correct for age. After deleting all observations younger than 45, survival was no longer related to age. Significance was then determined using log rank. The Pearson goodness-of-fit test was used to assess the null hypothesis that proportions of G-CIMP tumors by subgroup and recurrent tumors by subgroup are equal to the proportions for all tumors by subgroup. P-values for these tests were calculated by Monte Carlo simulation since the counts of tumors by subgroup were too small to apply the large sample chi-square approximation.
Since AKT influences response to chemotherapy, while not wishing to be bound by any theory, the inventors believe AKT subgroups are predictive markers. Indeed, TCGA SL patients treated with BCNU or CCNU had longer median survival than those receiving other treatments (FIG. 5; median survival=5.8 vs. 1.05 years; p=0.03 after correcting for age; log rank). […] This finding indicates patients in the SL subgroup are sensitive to BCNU and CCNU.

[2] = tested on: Glioblastoma AKT subgroups (Mesenchymal, Secondary-Like); test: Kaplan Meier survival of TCGA patients receiving more vs. less temozolomide, by AKT subgroup; format: in vivo, human
Excerpt: FIG. 17 depicts, in accordance with various embodiments of the invention, evidence that Mesenchymal patients benefit from temozolomide. Kaplan Meier survival curves were plotted within each subgroup for TCGA patients receiving more (≥3 cycles; red) vs. less (<3 cycles; black) temozolomide. […] Median survival was 0.6 years greater for Mesenchymal patients treated with more temozolomide (1.8 years) vs. less temozolomide (1.2 years); p=0.01 log rank; not age adjusted.
We plotted Kaplan Meier survival curves for patients treated with more vs. less TMZ in each AKT subgroup (FIG. 17). Since most TCGA patients received some TMZ, it was not possible to plot survival curves for patients treated with and without the drug. Instead, we compared survival in 2 treatment arms, those receiving more (≥3) vs. less (<3) cycles.
There was a tendency for patients who received more TMZ to not have received a nitrosourea. […] Without wishing to be bound by any particular theory, this may underlie the worse survival of patients receiving more TMZ in the Secondary-Like subgroup.

SMILES | survival advantage [1] [year] | median survival [1] [years] | sensitivity of patients in the SL subgroup [1] | median survival ([2]; less temozolomide (<3 cycles)) [years] | median survival ([2]; more temozolomide (≥3 cycles), p=0.01 log rank, not age adjusted) [years] | Median survival difference, more vs. less temozolomide ([2]; ≥3 vs. <3 cycles) [years]
O=NN(CCCl)C(=O)NCCCl [BCNU, carmustine] | 4.5 | 5.8 | sensitive | – | – | –
O=NN(CCCl)C(=O)NC1CCCCC1 [CCNU, lomustine] | 4.5 | 5.8 | sensitive | – | – | –
Cn1nnc2c(C(N)=O)ncn2c1=O [temozolomide] | – | – | – | 1.2 | 1.8 | 0.6
